Patent US20100168112A1, “2-Substituted and 4-substituted aryl nitrone compounds” (RENOVIS, INC., priority 2004, published 2010)
Like-named read-outs stand apart in the source and are kept apart here.

Tests used:
[1] = DPPH free radical-scavenging/antioxidant assay; format: biochemical; settings: 50 μM DPPH in 80% methanol; 24 h time point; read-out: EC50 (concentration at which a compound reduces by 50% the peak absorbance of DPPH at 520 nm)
Outline: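 Compounds diluted 100-fold from DMSO stocks into 50 μM DPPH in 80% methanol; absorbance at 520 nm followed kinetically to steady state, with the 24 h reading used. EC50 interpolated from OD520 versus concentration; Trolox, BHA, PBN and S-PBN as positive controls, DMSO as vehicle.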

[2] = Microsomal stability in rat liver microsomes; format: in vitro ADME; settings: rat liver microsomes 0.5 mg/ml, 1 mM NADPH, ~500 ng/ml compound, 37° C.
Procedure: (§1) Frozen Sprague-Dawley rat liver microsomes (RLM) were thawed on ice and gently mixed before use. The final reaction mixture consisted of a nitrone compound of this invention (at ˜500 ng/ml), 1 mM NADPH, and 0.5 mg/ml of RLM protein in 0.1 M PBS (pH7.4), with organic solvent concentration not exceeding 1% (v/v). Per set of incubations, a positive control compound was included. The mixture was first pre-incubated 3 to 5 minutes at 37° C. without NADPH, and the reaction was then initialized by the addition of NADPH and incubated at 37° C. for up to 30 minutes. An aliquot of the reaction mixture was sampled at the initiation of the reaction and at designated time after reaction started. The drawn samples were quenched with acetonitrile, diluted with mobile phase to ensure the detection of test article in the linear range, and analyzed by LC/MS/MS. Half-life or percentage of remaining nitrone compound was calculated using standard methods. A similar method, or a slight variation of it, was used to test the stability of nitrones in human liver microsomes (HLM).

[3] = Solubility measurement at pH 7.4; format: physicochemical; settings: aqueous buffer, thermodynamic from solid, phosphate buffer pH 7.4, room temperature
Procedure: Nitrone compounds (>3 mg) of this invention were mixed with a phosphate buffer at pH 7.4 to make a >0.3 mg/mL mixture. The mixture was vortexed for more than 2 hours and equilibrated over 12 hours at room temperature. The equilibrated mixture was used to saturate a 0.45 μm Tuffryn syringe filter. After saturating, the remainder of the mixture was filtered through the saturated filter. The filtrate was diluted by 1, 10, 100, and 1000 fold and analyzed using a LC/MS/MS method with standard curve ranging from 1 to 1000 ng/mL.

[4] = Pharmacokinetic evaluation following intravenous and oral administration in rats; format: in vivo; settings: male, Sprague-Dawley; for Cmax / Tmax / bioavailability: 5 mg/kg; for Cmax: rat plasma; for Cmax / Tmax: oral gavage, 2 mg/mL at 2.5 mL/kg; for clearance / Vd / Tmax / bioavailability / half-life: plasma, rat; for clearance / Vd / half-life: 1 mg/kg; for clearance / Vd: intravenous administration, 1 mg/mL at 1.0 mL/kg; for clearance: read-out: CI (clearance) (converted); for Vd: read-out: Vd (volume of distribution); for bioavailability: po 2 mg/mL at 2.5 mL/kg vs iv 1 mg/mL at 1.0 mL/kg, dose-normalized, read-out: F (%) oral bioavailability; for half-life: intravenous, read-out: T1/2 elimination half life (converted)
Outline: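 Male Sprague-Dawley rats, fasted, dosed iv (1 mg/mL formulation, 1.0 mL/kg, jugular or tail vein) or by oral gavage (2 mg/mL suspension, 2.5 mL/kg). Plasma sampled from 2 min to 480 min, some to 24 h, and quantified by LC-MS/MS (MRM). Parameters from noncompartmental analysis.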

1K1C rats = assay: Kidney ischemia-reperfusion injury, one-kidney one-clip (1K1C) model, fractional excretion of sodium; format: in vivo; settings: mean ± SEM
Procedure: Rats were individually housed in a modified cage that was equipped with a raised mesh bottom to separate the fecal product from urine. Before the test, all animals were withheld from food and water overnight. In the morning of the test, normal saline (i.e., 0.9% sodium chloride) was given via oral gavage at […] (Lipschitz, W. L. Hadidian, Z. & Kerpcar, A.: Bioassay of diuretics., J. Pharmacol. Exp. Ther., 79: 97-110, 1943). Samples of blood and urine were collected (standard procedures) at time points (1 and/or 5 hrs after fluid intake) from animals, centrifuged, and kept at 4 degrees until analysis for factors that reflect renal functions. Sodium and creatinine levels were determined by Quality Clinical Labs, Inc. (Mountain View, Calif.). Sodium concentrations were determined by ion selective electrode (standard procedures). Creatinine levels were determined by the alkaline picrated (Jaffe) reaction as described (Liobat-Estelles, M., Sevillano-Cabeja, A. & Campines-Falco, P.: Kinetic chemometric studies of the determination of creatinine using the Jaffe reaction. Part I: kinetics of the reaction; analytical conclusion. Analyst, 11: 597-602, 1989). Fractional excretion of sodium (FENa+), a parameter for ion-handling by the kidney, was calculated, using the following equation: =UNa×Pcr/PNa×Ucr, where UNa is the concentration of sodium in urine; Pcr is the plasma concentration of creatinine; PNa is the […]; and Ucr is the concentration of creatinine in the urine.
After the data for the calculation of basal levels of FENa+ was obtained (Table 16), rats were anesthetized with pentobarbital (65 mg/kg, i.p.). The abdominal region was shaved with a safety razor and sterilized with povidone iodine solution. A midline incision was made and the right kidney was exposed. The right renal pedicle and right urether were both ligated twice with 4-0 sutures and cut between the ligations. The right kidney was then removed. 7 days later, these rats, after another overnight food-water deprivation, were randomly assigned into 3 groups and orally given either Compound 62 (50 mg/kg, at the volume of 1 ml/kg,p.o.) or its vehicle (i.e., 96% of 0.5% CMC and 4 of 20% Tween 80, at the volume of 1 ml/kg, p.o.) 1 hr before kidney ischemia was produced. Positive controls were performed using quercetin (30 mg/kg, i.p.) given 2 hrs before ischemia (Kahraman, A., Erkasap, N., Serteser, M. & Koken, T.: Protective effect of quercetin on renal ischemia/reperfusion injury in rats. J. Nephrol., 16: 219-224, 2003). Animals were then anesthetized and had their left kidneys exposed after opening of their abdominal cavities. A non-traumatic vascular clamp was applied to the left renal pedicle (the ischemia phase), which was released 45 min later (the reperfusion phase). Lipschitz test was then conducted to measure ion-handling capabilities. Normal saline was orally administered at […] as soon as the vascular clamp was released. 60- and 300-min after reperfusion, plasma and urine samples were obtained.

[5] = Microsomal stability in human liver microsomes; format: in vitro ADME; settings: NADPH, 37° C.
Procedure: as §1

[6] = read-out: Solubility @ pH 7.4 (μg/mL)
[7] = 1K1C rats, Compound 62 50 mg/kg p.o. 1 hr before ischemia, quercetin 30 mg/kg i.p. 2 hrs before, 45 min ischemia

| EC50 [1] [µM] | % of Nitrone Remaining at 30 min (Rat) [2] [%] | solubility ([3]; read-out: Solubility @ pH 7.4) [µM] | solubility [3, 6] [µg/mL] | Cmax [4] [ng/mL] | clearance [4] [mL/min/kg] | Vd [4] [L/kg] | Tmax [4] [min] | bioavailability [4] [%] | half-life [4] [min] | % of Nitrone Remaining at 30 min (Human) [5] [%] | Structure (SMILES) | 1-hr post-ischemic FENa+ (%) (1K1C rats; [7]) | 5-hr post-ischemic FENa+ (%) (1K1C rats; [7]) | FENa+ (%) pre-surgery (basal) levels (1K1C rats; rats before 1K1C modeling, group baseline) [%] |
| --- | --- | --- | --- | --- | --- | --- | --- | --- | --- | --- | --- | --- | --- | --- |
| > 1000 | 0.3 | > 3330 | > 1080 | 10 | 36.2 | 1.66 | 4.98 | 0.1 | 32.4 | – | CC(C)(C)/[N+]([O-])=C/c1ccccc1S(=O)(=O)N1CCCCC1 [Compound 33, N-tert-Butyl-C-[2-(piperidine-1-sulfonyl)phenyl]nitrone] | – | – | – |
| > 1000 | 0 | 1420 | 500 | – | – | – | – | – | – | – | O=S(=O)(c1ccccc1/C=[N+](\[O-])C1CCCCC1)N1CCCCC1 [Compound 34, N-Cyclohexyl-C-[2-(piperidine-1-sulfonyl)phenyl]nitrone] | – | – | – |
| – | 100 | 9040 | 2000 | 5580 | 12.8 | 0.41 | 19.8 | 64.7 | 22.2 | – | CC(C)(C)/[N+]([O-])=C/c1ccc(C(=O)O)cc1 [Compound 13, N-tert-Butyl-C-(4-carboxy-phenyl)nitrone] | – | – | – |
| > 1000 | 7.4 | 2530 | 791 | 40 | 93.8 | 4.15 | 4.98 | 1.7 | 30.6 | – | CCN(CC)S(=O)(=O)c1ccccc1/C=[N+](\[O-])C(C)(C)C [Compound 30, N-tert-Butyl-C-(2-diethylsulfamoylphenyl)nitrone] | – | – | – |
| – | – | – | – | – | – | – | – | – | – | – | O=c1c(O)c(-c2ccc(O)c(O)c2)oc2cc(O)cc(O)c12 [Quercetin, quercetin, reference compound] | 0.54 ± 0.02 | 5.23 ± 4.43 | 1.60 ± 0.15 |
| – | 100 | 1360 | 376 | 2240 | 21.5 | 0.62 | 25.2 | 75.1 | 19.8 | – | CC(C)(C)NC(=O)c1ccc(/C=[N+](\[O-])C(C)(C)C)cc1 [Compound 18, N-(tert-Butyl)-C-[4-(N-tert-butylcarbamoyl)phenyl]nitrone] | – | – | – |
| 500 to 1000 | 78 | – | – | 339 | 31.5 | 0.98 | 14.4 | 13.7 | 21 | 94 | CC(C)S(=O)(=O)c1ccc(/C=[N+](\[O-])C(C)(C)C)c(S(=O)(=O)C(C)C)c1 [Compound 65, N-tert-Butyl-C-(2,4-bis-2-propanesulfonylphenyl)nitrone] | – | – | – |
| > 1000 | 0 | 107 | 38.4 | – | – | – | – | – | – | – | O=S(=O)(c1ccccc1/C=[N+](\[O-])Cc1ccccc1)N1CCCCC1 [Compound 35, N-Benzyl-C-[2-(piperidine-1-sulfonyl)phenyl]nitrone] | – | – | – |
| – | 100 | 14200 | 3130 | 3000 | 2.33 | 0.74 | 19.8 | 39.5 | 218 | – | CC(C)(C)/[N+]([O-])=C/c1ccc(C(N)=O)cc1 [Compound 19] | – | – | – |
| > 1000 | 0 | 2890 | 978 | – | – | – | – | – | – | – | CCN(CC)S(=O)(=O)c1ccccc1/C=[N+](\[O-])C1CCCCC1 [Compound 31, N-Cyclohexyl-C-(2-diethylsulfamoylphenyl)nitrone] | – | – | – |
